{"source": "patent US12558326B2", "about": "“Method for treating epilepsy” (Xenon Pharmaceuticals Inc., priority 2018, dated 2026)", "key": {"CF-1 mice": {"test_system": "CF-1 mice", "assay": "6 Hz seizure test (44 mA, 3 sec, corneal electrodes) in vivo", "parameters": "species or system mouse", "conditions": "20 mg/kg IP; for percentage of animals protected against psychomotor seizures: one hour before assay, 6 Hz 44 mA, n=16 per group", "from_the_text": "This assay tests the ability of a test compound to block a psychomotor seizure induced by long-duration, low frequency (6 Hz) stimulation, and provides an art-accepted model of therapy-resistant partial seizure (Brown et al., 1953 J. Pharmacol. Exp. Therapeut. 107(3):273-283; White H S, Woodhead J H, Wilcox K S, General principles: discovery and preclinical development of antiepileptic drugs, In: Levy R H, Mattson R H, Meldrum B S, Perucca E, editors. Antiepileptic drugs 5th ed Philadelphia: Lippincott Williams & Wilkins; 2002. pp. 36-48; Hartman et al., 2008 Epilepsia 49(2):334-339).\nMethods. Adult male CF1 mice (18-25 g) are pretreated intraperitoneally (i.p.) with the test compound at a dose of 20-100 mg/kg. If toxicity is noted in a pre-test screen for toxic effects when the test compound is administered i.p. at varying dosages, the dose is modified to avoid overt toxic effects. Each treatment group (n=4-16 mice/group) is examined for anticonvulsive effects at one or more of five time points (¼, ½, 1, 2, and 4 hr) after treatment with the test compound. Following pretreatment, each mouse receives a drop of 0.5% tetracaine hydrochloride applied to each eye. The mouse is then challenged with low-frequency (6 Hz) stimulation for 3 sec delivered through corneal electrodes. The low-frequency, long-duration stimuli are initially delivered at 32 mA intensity. Animals are manually restrained and released immediately following the stimulation and observed for the presence or absence of seizure activity. If the test compound is effective in the 32 mA screen, an additional assay is performed in which the stimulation current is increased to 44 mA but otherwise using the same protocol as described above. For dose-response studies, an n of 8 mice is used per dose and a dose-response curve is generated at the time of peak effect (TPE) at the specific stimulation intensity.\nTypically, the 6 Hz stimulation results in a seizure characterized by a minimal clonic phase that is followed by stereotyped, automatistic behaviors, including jaw clonus, forelimb clonus, twitching of the vibrissae, and/or Straub-tail. Animals not displaying such behaviors are considered protected. Seizure score can be used as an additional measure of the efficacy of the investigational compound (Racine, R. J. 1972 Electroencephalogr. Clin. Neurophysiol. 32(3):281-294). Data are analyzed by Mann-Whitney U test, with p<0.05 determined to be statistically significant. For data obtained at each time point, results are expressed as the total number of animals protected out of the number of animals tested over time (e.g., 2/4 represents 2 out of 4 mice tested are protected).\nIn this Example, the in vivo anticonvulsant effects of candidate AEDs were tested in mice using the 6 Hz seizure test. The 6 Hz seizure test was performed essentially as described above in Biological Example 2, with minor modifications as presented here, including data collection at a time point that was one hour after administration of the candidate AEDs.\nCompounds: Candidate AED compounds were prepared as described above unless otherwise noted, and were as follows: • Racemic fenfluramine ([rac]-fenfluramine hydrochloride); • (R)-fenfluramine ([R]-(−)-fenfluramine hydrochloride); • Racemic norfenfluramine ([rac]-norfenfluramine) was purchased from Toronto Research Chemicals, North York, Ontario, Canada; • (R)-norfenfluramine ([R]-(−)-norfenfluramine.\nAnimals: Adult male CF-1 albino mice (25-35 g) purchased from Harlan-Envigo (East Millstone, NJ). The mice were housed four per cage and had access to filtered water and chow ad libitum, throughout the experiment.\nCompound Preparation and Administration: All four compounds were solubilized in sterile aqueous saline solution (0.9% NaCl). Compounds were administered to animals (16 mice in each treatment group) via intraperitoneal (IP) injection at 10 ml/kg volume, one hour prior to the assay. Control animals received vehicle (saline) only. […]"}, "[1]": {"assay": "Brain and plasma distribution after the 6 Hz assay (UHPLC-ESI-MS/MS)", "type": "in vivo, mouse", "conditions": "20 mg/kg IP, total concentration, sampled immediately after 6 Hz assay (one hour post dose)", "experimental": "Pharmacological distribution and bioanalysis. Immediately following characterization of seizure behaviors in the 6 Hz assay, animals were humanely sacrificed and brain and plasma samples were collected for analysis of the distribution of the administered compounds to these tissue compartments.\nBrain sample homogenization. Pre-weighed whole mouse brains were thawed and 1 mL of deionized water and 1 mL of acetonitrile were added to each sample vial containing brain tissue. The samples were homogenized using a hand-held Omni™ TH homogenizer (Omni International, Kennesaw, GA, USA) until a uniform slurry was obtained. 1 mL aliquots of the slurry were transferred to clean 1.5 mL plastic Eppendorf tubes and the tubes were centrifuged at 13,000 rpm (15,871×g) for 20 minutes. The supernatant was collected and stored in clean labelled plastic Eppendorf vials at −80° C.\nMouse plasma and brain homogenate sample preparation. Mouse brain homogenates and mouse plasma samples, as well as calibration standards and QC samples prepared from control (“blank”) untreated mouse plasma, were extracted by protein precipitation. Briefly, 50 μL of each brain homogenate and mouse plasma sample (as well as each calibration standard, QC sample and blank mouse plasma sample) was mixed with 50 μL of internal standard solution [a 2,500 ng/mL solution of (S)-5-((1-benzylpyrrolidin-3-yl)(methyl)amino)-6-methyl-N-(thiazol-4-yl)pyridine-2-sulfonamide in deionized water/acetonitrile (1:1 v/v)], followed by addition of 50 μL of 6% (v/v) phosphoric acid in water. This was followed by the addition of 200 μL of acetonitrile. The samples were vortexed for 30 seconds and then centrifuged for 20 min at 13,000 rpm (15,871×g). The supernatants were further diluted four-fold with acetonitrile:water (1:1 v/v) and transferred to a 96-well plate prior to analysis. Calibration and QC samples were prepared in blank K2EDTA mouse plasma in the concentration range from 2.3 ng/mL to 4800 ng/mL with QC samples, including low QC (14 ng/mL), mid QC (225 ng/mL), and high QC (3600 ng/mL).\nUHPLC-ESI-MS/MS analysis. Samples were then analyzed by ultra-high pressure liquid chromatography/electrospray ionization tandem mass spectroscopy (UHPLC-ESI MS/MS) using a Sciex™ TQ-5500 (AB Sciex™ LP, Concord, ON, Canada) mass spectrometer equipped with a Shimadzu Nexera™ UHPLC pump, column compartment and auto-sampler (Shimadzu Scientific Instruments, Inc., Columbia, MD, USA), using a binary gradient elution starting with 80% water (A)/20% acetonitrile (B), both solvents containing 0.1% formic acid. After 0.6 minutes, mobile phase B was increased linearly to 100% to 1 minute and elution was maintained at 100% mobile phase B until 1.5 minutes, and then allowed to re-equilibrate at the initial ration of 80% mobile phase A and 20% mobile phase B for a total run time of 2.5 minutes at a flow rate of 0.4 mL/min. The column used was ACE Excel™ 2 C18-PFP (2.1 mm i.d.×[…], 2 μm particle size)(Advanced Chromatography Technologies Ltd, Aberdeen, Scotland). The analytes and the internal standard were ionized by electrospray in the positive ion mode and detected by multiple reaction monitoring (MRM) using the transitions listed in Table 1."}, "5-HT2A receptor": {"biological_target": "5-HT2A receptor (Homo sapiens, UniProt P28223)", "sequence (P28223 whole entry)": "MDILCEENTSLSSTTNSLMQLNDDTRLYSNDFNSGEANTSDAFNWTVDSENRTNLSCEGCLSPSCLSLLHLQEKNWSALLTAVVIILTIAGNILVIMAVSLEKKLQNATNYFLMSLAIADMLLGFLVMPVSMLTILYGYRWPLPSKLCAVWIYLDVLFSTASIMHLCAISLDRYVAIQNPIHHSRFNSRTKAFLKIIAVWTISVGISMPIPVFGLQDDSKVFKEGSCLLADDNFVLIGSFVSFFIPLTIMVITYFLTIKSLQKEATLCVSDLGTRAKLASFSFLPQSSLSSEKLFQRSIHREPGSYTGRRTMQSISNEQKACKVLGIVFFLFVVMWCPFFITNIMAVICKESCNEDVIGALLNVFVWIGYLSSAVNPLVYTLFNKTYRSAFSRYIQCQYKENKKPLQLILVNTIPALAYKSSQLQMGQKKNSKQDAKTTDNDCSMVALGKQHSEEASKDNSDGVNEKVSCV", "conditions": "Rothman et al. 2002, 2003; cited from earlier work"}, "5-HT2B receptor": {"biological_target": "5-HT2B receptor (Homo sapiens, UniProt P41595)", "sequence (P41595 whole entry)": "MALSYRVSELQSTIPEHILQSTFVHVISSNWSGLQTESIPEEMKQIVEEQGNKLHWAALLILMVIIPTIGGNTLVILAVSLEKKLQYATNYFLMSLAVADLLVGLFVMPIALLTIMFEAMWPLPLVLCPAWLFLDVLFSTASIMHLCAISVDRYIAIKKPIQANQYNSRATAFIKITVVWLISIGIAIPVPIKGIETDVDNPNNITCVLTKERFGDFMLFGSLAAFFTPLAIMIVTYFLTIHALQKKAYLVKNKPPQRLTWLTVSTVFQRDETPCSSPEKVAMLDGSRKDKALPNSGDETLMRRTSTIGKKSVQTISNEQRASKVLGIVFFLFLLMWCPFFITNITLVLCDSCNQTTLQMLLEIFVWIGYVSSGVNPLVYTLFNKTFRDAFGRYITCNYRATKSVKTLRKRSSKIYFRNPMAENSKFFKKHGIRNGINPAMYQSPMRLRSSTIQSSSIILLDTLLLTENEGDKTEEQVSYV", "conditions": "Rothman et al. 2002, 2003; cited from earlier work"}, "[2]": {"test_system": "norepinephrine (NE) release", "conditions": "Rothman et al. 2002, 2003; cited from earlier work"}, "5-HT2C receptor": {"biological_target": "T1, 5-HT2C receptor (Homo sapiens, UniProt P28335)", "T1 sequence (P28335 33-458)": "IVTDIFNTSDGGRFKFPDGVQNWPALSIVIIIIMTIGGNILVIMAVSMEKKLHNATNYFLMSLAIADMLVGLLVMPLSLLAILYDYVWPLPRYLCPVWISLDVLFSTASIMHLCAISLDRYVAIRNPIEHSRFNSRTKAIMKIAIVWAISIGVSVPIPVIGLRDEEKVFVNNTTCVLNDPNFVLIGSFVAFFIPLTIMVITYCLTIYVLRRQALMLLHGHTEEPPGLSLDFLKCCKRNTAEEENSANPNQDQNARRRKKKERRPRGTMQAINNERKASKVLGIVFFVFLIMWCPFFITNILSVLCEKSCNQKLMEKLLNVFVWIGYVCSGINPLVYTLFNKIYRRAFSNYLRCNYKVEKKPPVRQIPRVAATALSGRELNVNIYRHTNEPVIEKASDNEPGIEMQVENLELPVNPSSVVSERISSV", "conditions": "Rothman et al. 2002, 2003; cited from earlier work"}, "DBA/2 mice": {"test_system": "DBA/2 mice", "assay": "Audiogenic seizure test in DBA/2 mice", "type": "in vivo, mouse", "conditions": "180 mg/kg IP, 30 min prior", "experimental": "DBA/2 is a widely used inbred strain of mouse susceptible to audiogenic seizures due to the asp2 mutation. […] The objective of this study was to evaluate the anticonvulsant activity of (R/S)-fenfluramine and to compare it to (R)-fenfluramine in the DBA/2 mouse.\nThe method follows that described by Dilrmuiller et al., Neuroreport 4(6):683-686. Mice (DBA/2, 3-4 weeks old) were individually transferred (at 3-5 minute intervals) from the preparation room into an adjacent experimental room and placed in a Plexiglas™ jar (Diameter=40 cm; Height=35 cm) mounted with an electric bell (110-120 dB). Upon activating the bell, the occurrences and latencies to wild running fits, clonic and tonic seizures were measured. The number of deaths was also recorded. An audiogenic response score was assigned to each mouse as 0 (no seizure), 1 (wild running), 2 (clonic convulsion), 3 (tonic extension), or 4 (death). The bell was activated until a tonic seizure occurred or for a maximum of 60 seconds. Ten (10) mice were studied per group. The test was performed blind. All test compounds were dissolved in 0.9% saline (vehicle) and were administered by intraperitoneal (IP) injection at a dose volume of 10 mL/kg. Vehicle alone, (R/S)-fenfluramine (15 or 30 mg/kg) or (R)-fenfluramine (30 mg/kg) were administered 60 minutes prior to seizure induction. The positive reference compound (valproate; 180 mg/kg) was administered 30 minutes prior to seizure induction."}, "MES test": {"test_system": "MES test", "conditions": "in vivo; cited from earlier work"}, "6 Hz model": {"test_system": "6 Hz model", "conditions": "30 min after i.p. injection; cited from earlier work"}}, "note": "Where “and” joins values, the source holds several entries; their conditions need not be identical. Equal entries are not always repeated.", "data": [{"smiles": "CC(N)Cc1cccc(C(F)(F)F)c1", "note": "(racemic) [(rac)-norfenfluramine, (R/S)-1-(3-(trifluoromethyl)phenyl)propan-2-amine]", "values": [{"measurement": "percentage of animals protected against psychomotor seizures", "setting": "CF-1 mice", "value": 50, "unit": "%"}, {"measurement": "protective activity against seizures in the 6 Hz psychomotor seizure assay", "setting": "CF-1 mice; summary statement", "value": "exhibited protective activity against seizures"}, {"measurement": "Brain concentration", "setting": "[1]", "value": "151.2 μM and 30718 ng/g"}, {"measurement": "Plasma concentration", "setting": "[1]", "value": "12.97 μM and 2636 ng/g"}]}, {"smiles": "C[C@@H](N)Cc1cccc(C(F)(F)F)c1", "note": "[(R)-norfenfluramine, (R)-1-(3-(trifluoromethyl)phenyl)propan-2-amine]", "values": [{"measurement": "percentage of animals protected against psychomotor seizures", "setting": "CF-1 mice", "value": 50, "unit": "%"}, {"measurement": "Brain concentration", "setting": "[1]", "value": "179.6 μM and 36501 ng/g"}, {"measurement": "Plasma concentration", "setting": "[1]", "value": "17.73 μM and 3604 ng/g"}]}, {"smiles": "C[C@H](N)Cc1cccc(C(F)(F)F)c1", "note": "[(S)-norfenfluramine, (S)-1-((3-trifluoromethyl)phenyl)propan-2-amine]", "values": [{"measurement": "5-HT2A agonist activity", "setting": "5-HT2A receptor", "value": "potent"}, {"measurement": "5-HT2B agonist activity", "setting": "5-HT2B receptor", "value": "potent"}, {"measurement": "NE release-promoting activity", "setting": "[2]", "value": "potent"}, {"measurement": "5-HT2C agonist activity", "setting": "5-HT2C receptor", "value": "potent"}]}, {"smiles": "CCCC(CCC)C(=O)O", "note": "[Valproate]", "values": [{"measurement": "Clonic Convulsion Incidence", "setting": "DBA/2 mice; n=10", "value": 0, "unit": "%"}, {"measurement": "Tonic Extension Incidence", "setting": "DBA/2 mice; n=10", "value": 0, "unit": "%"}, {"measurement": "Wild Running Incidence", "setting": "DBA/2 mice; n=10", "value": 40, "unit": "%"}, {"measurement": "Clonic Convulsion Latency", "setting": "DBA/2 mice; mean ± SEM, maximum 60 s", "value": "60.0 ± 0.0", "unit": "s"}, {"measurement": "Tonic Extension Latency", "setting": "DBA/2 mice; mean ± SEM, maximum 60 s", "value": "60.0 ± 0.0", "unit": "s"}, {"measurement": "Wild Running Latency", "setting": "DBA/2 mice; mean ± SEM, maximum 60 s", "value": "38.1 ± 9.0", "unit": "s"}, {"measurement": "Audiogenic Response Score", "setting": "DBA/2 mice; score 0-4, mean ± SEM, n=10", "value": "0.4 ± 0.16"}]}, {"smiles": "CC[C@@H](C(N)=O)N1CCCC1=O", "note": "[levetiracetam]", "values": [{"measurement": "efficacy in the MES test", "setting": "MES test", "value": "ineffective"}, {"measurement": "ED50", "setting": "6 Hz model", "value": 19, "unit": "mg/kg"}]}]}
